Patent US4294833A, “Substituted 4-hydroxy-isophthalic acid picolylamides having a pharmaceutical activity in thromboembolic disorders” (Societa Italo-Britannica, priority 1977, dated 1981)

Tests used:
[1] = system: platelet aggregation induced by ADP; assay: Platelet aggregation inhibitory activity in vivo (Born aggregometer), ADP-induced; design: species or system New Zealand rabbits; conditions: Oryctolagus cuniculus, Platelet, ip, dose for 50% inhibition of ADP-induced aggregation curve; rabbits, intraperitoneal, blood 2, 4 and 6 hours after injection; read-out: platelet antiaggregant activity (AAP), DI50, ADP
Procedure: (§1) Determination of the platelet aggregation inhibitory activity in vivo
(§2) The activity of the above described compounds as platelet antiaggregant was tested in vivo on rabbits, by the Born aggregometer. The inhibition of the aggregation curve induced by ADP and thrombin was assessed with different drug concentrations according to the platelet reactivity. New Zealand rabbits which had been held fasting for 12 hours with water ad libitum, were anaesthetized with Nembutal in a dose of 35 mg/kg intramuscolarly. The blood was withdrawn from the carotidal arthery, before (control) and 2, 4, and 6 hours after the intraperitoneal injection of the compounds under examination (at the dose indicated below). The blood samples were taken up in a 3.8% aqueous solution of sodium citrate in a ratio 10:1 and thereupon centrifuged at 1500 r.p.m. for 10 minutes, for obtaining a PRP (platelet rich plasma). A portion of such a plasma was thereupon centrifuged at 8000 r.p.m. for 10 minutes, for obtaining a PPP (platelet lean plasma) which was used for zeroing the measuring apparatus.
(§3) From the results of said experiments, there was determined the dose of each product in mg/kg body weight able to induce a 50% inhibition of the aggregation curve (DI50) after treatment, referred to the curve obtained by the same control plasma before treatment.
(§4) In tables I and II are further indicated for each compound the method of preparation; the melting point PF in °C; the platelet antiaggregant activity (AAP) expressed in terms of DI50 in mg/kg, referred to ADP and thrombin respectively; the antithrombin activity (AT) in %; the anticoagulant activity (AC) in %; the fibrinolytic activity (FL) in %; the acute toxicity (LD50) in mice, intraperitoneally, in mg/kg, as previously defined.

[2] = system: platelet aggregation induced by thrombin; assay: Platelet aggregation inhibitory activity in vivo (Born aggregometer), thrombin-induced; design: species or system New Zealand rabbits; conditions: Oryctolagus cuniculus, Platelet, ip, dose for 50% inhibition of thrombin-induced aggregation curve; rabbits, intraperitoneal, blood 2, 4 and 6 hours after injection; read-out: platelet antiaggregant activity (AAP), DI50, Thrombin
Procedure: as §1, §2, §3, §4

[3] = system: thrombin-induced coagulation of platelet rich plasma; assay: Antithrombin activity on PRP, Hartert's thromboelastograph; assay type: in vivo, New Zealand rabbits; conditions: Oryctolagus cuniculus, Platelet, ip, percent decrease of index ma/[r+k] vs before treatment; 20 mg/kg intraperitoneal, rabbits
Procedure: Determination of the antithrombin activity
The antithrombin activity on the PRP (platelet rich plasma) obtained following the above described method was assessed by Hartert's thromboelastograph (Hellige model). The coagulation was induced by adding to 0.25 ml of plasma 0.06 ml of a thrombin solution (Roche Topostasin® per os) at 60 units*, pH 7.4**. The antithrombin activity was assessed in terms of a percent decrease of the index (ma/[r+k]) which was calculated from the thromboelastograph diagram, wherein r is the reaction time, k is the speed of the coagulum formation and ma is the maximum spread of the tong, after an intraperitoneal treatment with a dose of 20 mg/kg of each compound under examination, referred to the same index obtained before the treatment (control).
as §4

[4] = system: CaCl2-induced plasma coagulation; assay: Anticoagulant activity on PRP, Hartert's thromboelastograph; assay type: in vivo, New Zealand rabbits; conditions: Oryctolagus cuniculus, ip, percent increase of total time for coagulum formation (r+k) vs before treatment; 25 mg/kg intraperitoneal, rabbits; read-out: anticoagulant activity (AC)
Procedure: Determination of the anticoagulant activity
The anticoagulant activity was also assessed on PRP of animals treated as described in the preceding methods, by using again Hartert's thromboelastograph method.
The plasma coagulation was induced by adding to 0.25 ml PRP a 1.29% solution of CaCl2.
The anticoagulant effect was determined as a percent increase of the total time for the coagulum formation (the index r+k can be obtained from the thromboelastograph diagram) in a plasma after treatment, referred to the same index obtained before the treatment (control). Again the dose level was 25 mg/kg for each compound under examination, intraperitoneally.
as §4

blood coagulum = assay: Fibrinolytic activity, Fearnley method (lysis of blood coagulum in toto); assay type: in vivo; conditions: Oryctolagus cuniculus, ip, 0.5 h, percent decrease of coagulum weight after 30 minutes at 37° C.; 25 mg/kg intraperitoneal, rabbits; read-out: fibrinolytic activity (FL)
Procedure: Determination of the fibrinolytic activity
The determination of the fibrinolytic activity was made following the Fearnley method for the lysis of the blood coagulum in toto.
0.2 ml of blood were withdrawn from the marginal vein of the ear of rabbits treated in the same way as the previously described tests, before and after an intraperitoneal injection of the compounds under test at a dose level of 25 mg/kg for each compound.
The blood samples were placed in test tubes containing 1.7 ml of phosphate buffer at pH 7.4 and 0.1 ml of thrombin (Roche Topostasin ® per os) at 50 units NIH/ml, and maintained in an ice bath. The test tubes were maintained at said temperature for 30 minutes and thereupon were transferred to a temperature controlled water bath at 37° C.
The fibrinolytic activity was determined as a percent decrease of the coagulum weight, measured after incubation for 30 minutes at 37° C.
as §4

[5] = Acute toxicity, intraperitoneal; conditions: mouse, in vivo, ip, male Swiss mice, intraperitoneal, 7 days observation; preliminary, by graphic interpolation; read-out: acute toxicity (LD50 / DL50)
Procedure: The acute toxicity limit was determined intraperitoneally on male Swiss mice, weighing 20±2 g, held fasting for 18 hours with water ad libitum.
The animals were maintained under observation for 7 days of treatment, by examining the general symptomatology and noting the death sequency. The preliminary DL50 in mg/kg body weight was calculated by graphic interpolation of the results as obtained.
as §4

SMILES	ED50 [1] [mg/kg]	ED50 [2] [mg/kg]	inhibition in vivo at 20 mg/kg [3] [%]	change in vivo at 25 mg/kg [4] [%]	fibrinolytic activity (percent decrease of coagulum weight) at 25 mg/kg (blood coagulum) [%]	LD50 at 168 h [5] [mg/kg]
COc1cc(C(=O)NCc2cccnc2)cc(C(=O)NCc2cccnc2)c1OC1CCCC1 [Example 20]	35.6	21.4	32.6	12.9	27.9	375
CC(C)(C)COc1c(Cl)cc(C(=O)NCc2cccnc2)cc1C(=O)NCc1cccnc1 [Example 28]	45.3	31	27.9	19.6	25.5	215
C=CCOc1c(OC)cc(C(=O)NCc2cccnc2)cc1C(=O)NCc1cccnc1 [Example 17]	51.7	32.6	36	14.1	23	298
CC=COc1c(Cl)cc(C(=O)N(Cc2cccnc2)C(C)(C)CC)cc1C(=O)N(Cc1cccnc1)C(C)(C)CC [Example 47]	55.8	36.2	25.6	12.8	19.5	210
CC=COc1c(Cl)cc(C(=O)N(Cc2cccnc2)C(CC)CC)cc1C(=O)N(Cc1cccnc1)C(CC)CC [Example 50]	52.2	33.8	27.6	13.8	24.6	198
O=C(NCc1cccnc1)c1cc(C(=O)NCc2cccnc2)c(O)c([N+](=O)[O-])c1 [Example 31]	36.6	27	23.1	13.6	20.5	345
CCC(C)Oc1ccc(C(=O)NCc2cccnc2)cc1C(=O)NCc1cccnc1 (stereo not drawn) [Example 14]	46.4	29.7	38.1	22.3	22.5	227
CC(C)Oc1ccc(C(=O)NCc2ccncc2)cc1C(=O)NCc1ccncc1 [Example 62]	46.8	32.3	26.5	12	21.7	618
CCCCCOc1c(Cl)cc(C(=O)NCc2cccnc2)cc1C(=O)NCc1cccnc1 [Example 24]	41.3	35.6	24.4	16	6.4	371
CC=CCOc1ccc(C(=O)N(C)Cc2ccncc2)cc1C(=O)N(C)Cc1ccncc1 [Example 69]	26.1	19.3	48.7	14.2	41.6	210
CC=COc1c(Cl)cc(C(=O)N(Cc2cccnc2)CC(C)(C)C)cc1C(=O)N(Cc1cccnc1)CC(C)(C)C [Example 48]	50.3	31.9	27.6	14.4	20.1	207
C=CCCCOc1ccc(C(=O)NCc2cccnc2)cc1C(=O)NCc1cccnc1 [Example 9]	36.2	23.2	49.9	14.5	40.3	375
COc1cc(C(=O)NCc2cccnc2)cc(C(=O)NCc2cccnc2)c1O [Example 33]	58.4	38.9	20.3	11.2	15.5	570
O=C(NCc1ccncc1)c1ccc(O)c(C(=O)NCc2ccncc2)c1 [Example 57]	26	19.2	38.4	19	32.1	661
CC=CCOc1ccc(C(=O)N(C)Cc2cccnc2)cc1C(=O)N(C)Cc1cccnc1 [Example 53]	27.5	19.6	47.9	15.1	40.5	215
C=CCOc1c(Cl)cc(C(=O)NCc2ccncc2)cc1C(=O)NCc1ccncc1 [Example 67]	55.6	34.2	39.8	14.6	27.1	187
CC(C)CCOc1ccc(C(=O)NCc2cccnc2)cc1C(=O)NCc1cccnc1 [Example 13]	48.3	27.1	28.5	24.5	21.9	173
CC(C)CCOc1ccc(C(=O)NCc2ccncc2)cc1C(=O)NCc1ccncc1 [Example 63]	42.9	28.4	29.2	22.6	23.2	185
CCCOc1ccc(C(=O)NCc2ccncc2)cc1C(=O)NCc1ccncc1 [Example 59]	25.2	18.1	39.1	20.6	32.8	623
CC=COc1c(Cl)cc(C(=O)N(CCCCC)Cc2cccnc2)cc1C(=O)N(CCCCC)Cc1cccnc1 [Example 51]	51.6	32.4	28.2	15.7	26.1	205
CC(C)Oc1ccc(C(=O)NCc2cccnc2)cc1C(=O)NCc1cccnc1 [Example 12]	50.2	30.9	25.6	12.7	20.2	615
